Patent publication US20160038468A1 (priority 2013, published 2016)
Values after ≈ are worked out from the molar mass of the structure shown. Like-named read-outs stand apart in the source and are kept apart here.

How the values were obtained:
Format in all cases: cell-based
Mobiluncus all species = experiment: Agar dilution MIC (CLSI), Mobiluncus all species; conditions: # tested 40
M. curtisii = experiment: Agar dilution MIC (CLSI), M. curtisii vaginal isolates; conditions: for Number of strains with indicated MIC: 14 samples; for MIC: read-out: Minimal Inhibitory Concentration (MIC)
Prevotella amnii = experiment: Agar dilution MIC (CLSI), Prevotella amnii vaginal isolates; conditions: for Number of strains with indicated MIC: 33 samples; for MIC: read-out: Minimal Inhibitory Concentration (MIC)
Prevotella timonensis = experiment: Agar dilution MIC (CLSI), Prevotella timonensis vaginal isolates; conditions: for MIC: read-out: Minimal Inhibitory Concentration (MIC); for Number of strains with indicated MIC: 33 samples
[1] = Hoylesella timonensis, # tested 33

CCC[C@@H]1C[C@@H](C(=O)N[C@@H]([C@H]2O[C@H](SC)[C@H](O)[C@@H](O)[C@H]2O)[C@H](C)Cl)N(C)C1 [Clindamycin]
MIC50 (Mobiluncus all species): 0.125 µg/mL (≈ 0.294 µM) | MIC90 (Mobiluncus all species): 0.25 µg/mL (≈ 0.588 µM) | Susceptible (Mobiluncus all species; number (%) of isolates): 38 (95) μg/ml | Resistant (Mobiluncus all species; number (%) of isolates, resistance: rifaximin >32, metronidazole >32, clindamycin >8 μg/ml): 2 (5) μg/ml | Number of strains with indicated MIC (M. curtisii; MIC 0.06 μg/ml): 3 | Number of strains with indicated MIC (M. curtisii; MIC 32 μg/ml): 1 | Number of strains with indicated MIC (M. curtisii; MIC >[…]): 1 | MIC (M. curtisii; individual isolates recovered from the vagina 2009-2012, one line per isolate (id in c0/c1 of the row)): 64 µg/mL (≈ 151 µM) | MIC (M. curtisii): > 128 µg/mL | MIC Range (Prevotella amnii; # tested 33): 0.03 to 128 µg/mL | Number of strains with indicated MIC (Prevotella amnii; MIC 0.03 μg/ml): 32 | Number of strains with indicated MIC (Prevotella amnii; MIC […]): 1 | MIC (Prevotella amnii; Prevotella amnii, isolate 601203 4): 0.03 µg/mL (≈ 0.0706 µM) | MIC (Prevotella amnii; Prevotella amnii, isolate 601256 11): 0.03 µg/mL (≈ 0.0706 µM) | MIC (Prevotella amnii; Prevotella amnii, isolate 601258 25): 0.03 µg/mL (≈ 0.0706 µM) | MIC (Prevotella amnii; Prevotella amnii, isolate 601261 E): 0.03 µg/mL (≈ 0.0706 µM) | MIC (Prevotella amnii; Prevotella amnii, isolate 601266 20): 0.03 µg/mL (≈ 0.0706 µM) | MIC (Prevotella amnii; Prevotella amnii, isolate 601278 10): 0.03 µg/mL (≈ 0.0706 µM) | MIC (Prevotella amnii; Prevotella amnii, isolate 601287 HH): 0.03 µg/mL (≈ 0.0706 µM) | MIC (Prevotella amnii; Prevotella amnii, isolate 601291 41): 0.03 µg/mL (≈ 0.0706 µM) | MIC (Prevotella amnii; Prevotella amnii, isolate 601293 29): 0.03 µg/mL (≈ 0.0706 µM) | MIC (Prevotella amnii; Prevotella amnii, isolate 601305 A): 0.03 µg/mL (≈ 0.0706 µM) | MIC (Prevotella amnii; Prevotella amnii, isolate 601311 K): 0.03 µg/mL (≈ 0.0706 µM) | MIC (Prevotella amnii; Prevotella amnii, isolate 601314 19): 0.03 µg/mL (≈ 0.0706 µM) | MIC (Prevotella amnii; Prevotella amnii, isolate 601318 G): 0.03 µg/mL (≈ 0.0706 µM) | MIC (Prevotella amnii; Prevotella amnii, isolate 601336 33): 0.03 µg/mL (≈ 0.0706 µM) | MIC (Prevotella amnii; Prevotella amnii, isolate 601340 37): 128 µg/mL (≈ 301 µM) | MIC (Prevotella amnii; Prevotella amnii, isolate 601341 H): 0.03 µg/mL (≈ 0.0706 µM) | MIC (Prevotella amnii; Prevotella amnii, isolate 601350 A): 0.03 µg/mL (≈ 0.0706 µM) | MIC (Prevotella amnii; Prevotella amnii, isolate 601365 6): 0.03 µg/mL (≈ 0.0706 µM) | MIC (Prevotella amnii; Prevotella amnii, isolate 601368 24): 0.03 µg/mL (≈ 0.0706 µM) | MIC (Prevotella amnii; Prevotella amnii, isolate 601369 13): 0.03 µg/mL (≈ 0.0706 µM) | MIC (Prevotella amnii; Prevotella amnii, isolate 601375 L): 0.03 µg/mL (≈ 0.0706 µM) | MIC (Prevotella amnii; Prevotella amnii, isolate 601377 9): 0.03 µg/mL (≈ 0.0706 µM) | MIC (Prevotella amnii; Prevotella amnii, isolate 601379 24): 0.03 µg/mL (≈ 0.0706 µM) | MIC (Prevotella amnii; Prevotella amnii, isolate 601388 G): 0.03 µg/mL (≈ 0.0706 µM) | MIC (Prevotella amnii; Prevotella amnii, isolate 601399 10): 0.03 µg/mL (≈ 0.0706 µM) | MIC (Prevotella amnii; Prevotella amnii, isolate 601405 A): 0.03 µg/mL (≈ 0.0706 µM) | MIC (Prevotella amnii; Prevotella amnii, isolate 601411 L): 0.03 µg/mL (≈ 0.0706 µM) | MIC (Prevotella amnii; Prevotella amnii, isolate 601413 10): 0.03 µg/mL (≈ 0.0706 µM) | MIC (Prevotella amnii; Prevotella amnii, isolate 601418 27): 0.03 µg/mL (≈ 0.0706 µM) | MIC (Prevotella amnii; Prevotella amnii, isolate 601426 A): 0.03 µg/mL (≈ 0.0706 µM) | MIC (Prevotella amnii; Prevotella amnii, isolate 601430 14): 0.03 µg/mL (≈ 0.0706 µM) | MIC (Prevotella amnii; Prevotella amnii, isolate 601434 13): 0.03 µg/mL (≈ 0.0706 µM) | MIC (Prevotella amnii; Prevotella amnii, isolate 601458 13): 0.03 µg/mL (≈ 0.0706 µM) | MIC50 (Prevotella amnii; Prevotella amnii, # tested 33): 0.03 µg/mL (≈ 0.0706 µM) | MIC90 (Prevotella amnii; Prevotella amnii, # tested 33): 0.03 µg/mL (≈ 0.0706 µM) | Susceptible (Prevotella amnii; number (%) of isolates, # tested 33): 32 (97) μg/ml | Resistant (Prevotella amnii; number (%) of isolates, # tested 33, resistance: rifaximin >32, metronidazole >32, clindamycin >8 μg/ml): 1 (3) μg/ml | MIC (Prevotella timonensis; Hoylesella timonensis, isolate 601080 5): 0.03 µg/mL (≈ 0.0706 µM) | MIC (Prevotella timonensis; Hoylesella timonensis, isolate 601088 15): 0.03 µg/mL (≈ 0.0706 µM) | MIC (Prevotella timonensis; Hoylesella timonensis, isolate 601093 24): 0.03 µg/mL (≈ 0.0706 µM) | MIC (Prevotella timonensis; Hoylesella timonensis, isolate 601097 S): 0.03 µg/mL (≈ 0.0706 µM) | MIC (Prevotella timonensis; Hoylesella timonensis, isolate 601098 B): 0.03 µg/mL (≈ 0.0706 µM) | MIC (Prevotella timonensis; Hoylesella timonensis, isolate 601167 13): 0.06 µg/mL (≈ 0.141 µM) | MIC (Prevotella timonensis; Hoylesella timonensis, isolate 601170 13): 0.03 µg/mL (≈ 0.0706 µM) | MIC (Prevotella timonensis; Hoylesella timonensis, isolate 601178 19): 0.03 µg/mL (≈ 0.0706 µM) | MIC (Prevotella timonensis; Hoylesella timonensis, isolate 601194 9B): 0.03 µg/mL (≈ 0.0706 µM) | MIC (Prevotella timonensis; Hoylesella timonensis, isolate 601245 16): 0.03 µg/mL (≈ 0.0706 µM) | MIC (Prevotella timonensis; Hoylesella timonensis, isolate 601252 B): 0.03 µg/mL (≈ 0.0706 µM) | MIC (Prevotella timonensis; Hoylesella timonensis, isolate 601255 17): 0.03 µg/mL (≈ 0.0706 µM) | MIC (Prevotella timonensis; Hoylesella timonensis, isolate 601266 18): 0.03 µg/mL (≈ 0.0706 µM) | MIC (Prevotella timonensis; Hoylesella timonensis, isolate 601278 12): 0.06 µg/mL (≈ 0.141 µM) | MIC (Prevotella timonensis; Hoylesella timonensis, isolate 601281 22): 0.03 µg/mL (≈ 0.0706 µM) | MIC (Prevotella timonensis; Hoylesella timonensis, isolate 601287 H): 0.03 µg/mL (≈ 0.0706 µM) | MIC (Prevotella timonensis; Hoylesella timonensis, isolate 601311 B): 0.03 µg/mL (≈ 0.0706 µM) | MIC (Prevotella timonensis; Hoylesella timonensis, isolate 601388 S): 0.03 µg/mL (≈ 0.0706 µM) | MIC (Prevotella timonensis; Hoylesella timonensis, isolate 601429 11): 128 µg/mL (≈ 301 µM) | MIC (Prevotella timonensis; Hoylesella timonensis, isolate 601459 21): 0.03 µg/mL (≈ 0.0706 µM) | MIC (Prevotella timonensis; Hoylesella timonensis): > 128 µg/mL | MIC50 (Prevotella timonensis; [1]): 0.03 µg/mL (≈ 0.0706 µM) | MIC90 (Prevotella timonensis; [1]): > 128 µg/mL | Number of strains with indicated MIC (Prevotella timonensis; MIC 0.03 μg/ml): 17 | Number of strains with indicated MIC (Prevotella timonensis; MIC 0.06 μg/ml): 2 | Number of strains with indicated MIC (Prevotella timonensis; MIC >[…]): 13 | Number of strains with indicated MIC (Prevotella timonensis; MIC […]): 1 | Minimal Inhibitory Concentration (MIC) (Prevotella timonensis; isolate 301212 10): >128 µg/mL | Minimal Inhibitory Concentration (MIC) (Prevotella timonensis; isolate 601175 J): >128 µg/mL | Minimal Inhibitory Concentration (MIC) (Prevotella timonensis; isolate 601214 A): >128 µg/mL | Minimal Inhibitory Concentration (MIC) (Prevotella timonensis; isolate 601226 C): >128 µg/mL | Minimal Inhibitory Concentration (MIC) (Prevotella timonensis; isolate 601234 B): >128 µg/mL | Minimal Inhibitory Concentration (MIC) (Prevotella timonensis; isolate 601293 13): >128 µg/mL | Minimal Inhibitory Concentration (MIC) (Prevotella timonensis; isolate 601367 E): >128 µg/mL | Minimal Inhibitory Concentration (MIC) (Prevotella timonensis; isolate 601370 13): >128 µg/mL | Minimal Inhibitory Concentration (MIC) (Prevotella timonensis; isolate 601401 J): >128 µg/mL | Minimal Inhibitory Concentration (MIC) (Prevotella timonensis; isolate 601411 S): >128 µg/mL
